{
  "source": "patent US7022663B2",
  "about": "(Yeda Research and Development Co., Ltd., priority 2000, dated 2006)",
  "key": {"[1]": {"tested_on": "Experimental allergic Encephalomyelitis (EAE)", "procedure": "Rhesus monkeys were fed with the enteric coated capsules. 5 feedings before disease induction and 5 feedings after disease induction, on alternate days. Experimental allergic Encephalomyelitis (EAE) was induced by injecting 8 mg myelin basic protein (MBP) in complete Freund's adjuvant (CFA) intra-dermally into the leg. EAE symptoms were evaluated on the following scale:\nEvaluation of EAE clinical signs"}, "EAE [2]": {"tested_on": "EAE", "excerpt": "EAE was induced in Lewis rats by the injection of guinea pig spinal cord homogenate in CFA into the hind legs."}, "Chronic-relapsing EAE": {"tested_on": "Chronic-relapsing EAE", "excerpt": "Chronic—relapsing EAE was induced in female Biozzi mice by the injection of mouse spinal cord homogenate (MSCH) in CFA, following by re-injection of the encephalitogen one week later, in the same manner."}, "EAE [3]": {"tested_on": "EAE", "conditions": "enteric-coated tablets", "excerpt": "As in Example 3B, observation began on day 8 and continued until the conclusion of the experiment, which, in this case, was day 57. […] EAE-related neurological signs appeared between day 14 and 54 as specified in Table 9. Animals were sacrificed when they reached score 4."}, "IL-10": {"tested_on": "IL-10", "conditions": "oral, enteric coated capsules, MS patients"}, "IL-2 [4]": {"tested_on": "IL-2", "conditions": "oral, enteric coated capsules, MS patients"}, "EAE [5]": {"tested_on": "EAE", "conditions": "monkey, in vivo"}, "T cell": {"tested_on": "T cell", "conditions": "Aharoni et al. 1997; cited from earlier work"}, "IL-2 [6]": {"tested_on": "IL-2", "conditions": "cited from earlier work"}, "IFN-γ": {"tested_on": "IFN-γ", "conditions": "cited from earlier work"}, "Th2": {"tested_on": "Th2", "conditions": "cited from earlier work"}, "[7]": {"tested_on": "experimental allergic encephalomyelitis (EAE)", "conditions": "cited from earlier work"}, "[8]": {"tested_on": "exacerbating-remitting multiple sclerosis", "conditions": "daily subcutaneous injections, phase III; cited from earlier work"}, "[9]": {"tested_on": "relapsing-remitting form of EAE", "experiment": "Induction of relapsing-remitting EAE in Cynamologus monkeys by MBP in CFA", "assay_type": "in vivo", "procedure": "A relapsing-remitting form of EAE was induced by the injection of emulsified MBP in CFA containing 3 mg/ml of Mycobacterium Tuberculosis (MT), intradermally into right & left footpads.\nObservation was initiated on day 8."}, "[10]": {"conditions": "all dose groups, daily gavage of solution"}, "[11]": {"conditions": "oral solution daily from day 16"}},
  "note": "Several values for one entry are separate records, joined by “and”; a condition that tells them apart may be missing. Equal values may be shown once. Read-outs that look alike come from different tables or passages of the source.",
  "data": [
    {"molecule": "L-glutamic acid polymer with L-alanine, L-lysine and L-tyrosine, acetate (salt) [Copolymer 1]", "values": [
      {"measurement": "signs of EAE", "setting": "[1]; 20 mg in enteric coated capsules, 5 feedings before and 5 after induction on alternate days, first study (FIG. 1), one animal", "value": "did not develop any signs of disease till day 60"},
      {"measurement": "course of EAE upon treatment with 20 mg capsules", "setting": "[1]; animal first treated with 1 mg capsules, then 20 mg enteric coated capsules", "value": "healed completely"},
      {"measurement": "outcome of EAE", "setting": "[1]; second study (FIG. 2), capsules not gastro-protective (opened in the stomach)", "value": "died from the disease"},
      {"measurement": "protection from EAE", "setting": "[1]; second study (FIG. 2), enteric coated capsules 1, 10 and 20 mg", "value": "fully protected from EAE"},
      {"measurement": "% of sick rats", "setting": "EAE [2]; [10]", "value": "reduced"},
      {"measurement": "disease duration", "setting": "EAE [2]; [10]", "value": "reduced"},
      {"measurement": "disease onset", "setting": "EAE [2]; [10]", "value": "delayed"},
      {"measurement": "severity of disease (mean score and mean maximal score)", "setting": "EAE [2]; [10]", "value": "reduced"},
      {"measurement": "effect on EAE", "setting": "EAE [2]; solution 0.1-10 mg/kg by gavage every day from induction to day 24", "value": "inhibited"},
      {"measurement": "EAE clinical symptoms of the second relapse", "setting": "Chronic-relapsing EAE; oral solution 0.5, 2.5, 12.5 mg/kg/day from day 16, dose-dependent", "value": "reduced"},
      {"measurement": "incidence of second relapse, severity of symptoms, duration of relapse", "setting": "Chronic-relapsing EAE; [11]", "value": "suppressive effect was demonstrated in all parameters checked"},
      {"measurement": "most effective dose", "setting": "Chronic-relapsing EAE; [11]", "value": 12.5, "unit": "mg/kg"},
      {"measurement": "Incidence", "setting": "EAE [3]; 10 mg group", "value": "3/3"},
      {"measurement": "Mean Disease Onset Day", "setting": "EAE [3]; 10 mg group", "value": 30},
      {"measurement": "Mean Maximal Score", "setting": "EAE [3]; 10 mg group", "value": 2.33},
      {"measurement": "Mean Score", "setting": "EAE [3]; 10 mg group", "value": "1.3 ± 0.56"},
      {"measurement": "Incidence", "setting": "EAE [3]; 20 mg group", "value": "3/3"},
      {"measurement": "Mean Disease Onset Day", "setting": "EAE [3]; 20 mg group", "value": 30},
      {"measurement": "Mean Maximal Score", "setting": "EAE [3]; 20 mg group", "value": 2.33},
      {"measurement": "Mean Score", "setting": "EAE [3]; 20 mg group", "value": "1.6 ± 0.53"},
      {"measurement": "effect on incidence of the disease", "setting": "EAE [3]; 10 and 20 mg", "value": "does not change the incidence of the disease"},
      {"measurement": "most effective dosage", "setting": "EAE [3]; 10 and 20 mg tested, confirms Example 3B", "value": 10, "unit": "mg"},
      {"measurement": "change of IL-10", "setting": "IL-10", "value": "increase"},
      {"measurement": "change of IL-2", "setting": "IL-2 [4]", "value": "decrease"},
      {"measurement": "Daily Clinical Score", "setting": "EAE [5]", "value": 2},
      {"measurement": "Incidence", "setting": "EAE [5]", "value": "3/3 and 1/3"},
      {"measurement": "Mean Disease Onset Day", "setting": "EAE [5]", "value": "14.33 and 18.33 and 23"},
      {"measurement": "most effective dosage", "setting": "EAE [5]", "value": 10, "unit": "mg"},
      {"measurement": "pattern of disease compared with placebo group", "setting": "EAE [5]", "value": "no obvious improvement"},
      {"measurement": "T cell proliferation in response to host cell", "setting": "T cell", "value": "inhibited"},
      {"measurement": "pro-GVHD IL-2 cytokine secretion", "setting": "IL-2 [6]", "value": "prevented"},
      {"measurement": "pro-GVHD IFN-γ cytokine secretion", "setting": "IFN-γ", "value": "prevented"},
      {"measurement": "beneficial Th2 anti-inflammatory response", "setting": "Th2", "value": "induced"},
      {"measurement": "effect on EAE", "setting": "[7]; induced by various encephalitogens including MSCH, MBP, PLP, MOG", "value": "suppress"},
      {"measurement": "activity by injection", "setting": "[7]; injected subcutaneously, intra-peritoneally, intravenously or intramuscularly", "value": "active"},
      {"measurement": "progression of disability", "setting": "[8]", "value": "slow"},
      {"measurement": "relapse rate", "setting": "[8]", "value": "reduce"}
    ]},
    {"molecule": "MBP: myelin basic protein, natural component of the myelin sheath, injected in CFA to induce EAE (protein, UniProt P02686 1-304, looked up) Myelin basic protein: MGNHAGKRELNAEKASTNSETNRGESEKKRNLGELSRTTSEDNEVFGEADANQNNGTSSQDTAVTDSKRTADPKNAWQDAHPADPGSRPHLIRLFSRDAPGREDNTFKDRPSESDELQTIQEDSAATSESLDVMASQKRPSQRHGSKYLATASTMDHARHGFLPRHRDTGILDSIGRFFGGDRGAPKRGSGKDSHHPARTAHYGSLPQKSHGRTQDENPVVHFFKNIVTPRTPPPSQGKGRGLSLSRFSWGAEGQRPGFGYGGRASDYKSAHKGFKGVDAQGTLSKIFKLGGRDSRSGSPMARR", "values": [
      {"measurement": "Daily Clinical Score", "setting": "[9]; Female Z-920, dose 2.5 mg, columns = days 14-32 after induction", "value": "3 and 5"},
      {"measurement": "Daily Clinical Score", "setting": "[9]; Male Z-701, dose 10 mg, columns = days 14-32", "value": 0},
      {"measurement": "Daily Clinical Score", "setting": "[9]; Male Z-1669, dose 5 mg, columns = days 14-32", "value": 0}
    ]}
  ]
}
